Assay results from patent publication US20190046627A1, “USE OF A GNP-LLO91-99 COMPLEX FOR THE TREATMENT AND PREVENTION OF CANCER” (FUNDACIÓN INSTITUTO DE INVESTIGACIÓN MARQUES DE VALDECILLA, priority 2016, published 2019).
“Also recorded” adds a separate entry of the source. No end group written: not given here.

Legend:
[1] = test system: murine melanoma B16OVA; assay: Reduction of tumor size, monotherapy or combination with immunological control point immunotherapies (Example 4); assay type: in vivo, mice; conditions: s.c. B16OVA
Experimental: For the study of the reduction of the tumor in adults and increasing the survival making use of different immunotherapies with immunological control points and their comparison as a monotherapy or combination therapy with that of the invention, 5×10^5 cells of murine melanoma B16OVA were inoculated in a subcutaneous manner just like in FIG. 1 (Example 2). Following 7 days post-inoculation, 50 μg/ml of the therapy of the invention were inoculated in the tumors for 7 days as a monotherapy, GNP-LLO91-99 (gluconanoparticles synthesized with the peptide from listeriolysin O of Listeria monocytogenes, LLO91-99), or in combination with the following immunotherapies with immunological control points, anti-CTLA-4 or anti-PD-1 in a dose of 100 μg/mouse every 2 days up to a total of 7 days or no particle (NT).
Following this treatment, the mice were sacrifice at different times following the therapies, 14, 21 or 30 days in total. The results are shown in FIG. 3A following the sacrifice of the mice, recovery of the tumors and measuring of their size with a gauge. In another similar experiment, the mice are not sacrificed and the effect of the therapies is evaluated in the survival of the mice.

[2] = test system: glioblastoma (RG-1); assay: In vitro apoptosis-necrosis, flow cytometry annexin V-APC / 7-ADD; assay type: cell-based; conditions: 10 μg/ml, 16 hours
Experimental: 2.—In vitro apoptosis-necrosis. The different tumor cells (1×10^6 cells) are treated with 10 μg/ml of the GNP-LLO91-99 gold nanoparticles in culture plates, 16 hours prior to the apoptosis-necrosis analysis, including cells of each type of tumor without treatment with the gold nanoparticles (control). Following washing, the cells are analyzed by means of flow cytometry using two specific products, annexin V conjugated with the APC fluorochrome and the fluorescent marker for binding to DNA, 7-ADD (7-amino-actinomycin D). Apoptosis and necrosis in the tumor cells are analyzed by means of the differential marking with annexin V-APC and 7-ADD expressed as percentages. While the necrosis is indicated as the percentage of cells doubly marked with annexin V-APC and 7-ADD, the apoptosis is expressed as the percentage of cells marked only with annexin V.

[3] = test system: A-375, human melanoma; assay: In vitro activation cell markers, flow cytometry; assay type: cell-based; conditions: 10 μg/ml pre-treatment, A375
Experimental: (§1) 1.—Tumor cells. The cells used are: Hepa1-6, murine hepatocarcinoma, TC-1, murine lung carcinoma; B16F10, murine melanoma; A-375, human melanoma; hamster melanoma (ATCC).
(§2) 3.—Study of in vitro activation cell markers. The markers of the cell surface of the different tumor cells (1×10^6 cells) that are pre-treated or that are not pre-treated with 10 μg/ml of the GNP-LLO91-99 gold nanoparticles similar to the apoptosis process are analyzed by means of flow cytometry using the following antibodies (Miltenyi Biotech): anti-CD86-V450, anti-CD80-FITC, anti-MHC-II-APC, CD11c-PE, anti-NCAM-PE, anti-PD-1-V450.

[4] = test system: B16F10, murine melanoma; assay: In vitro activation cell markers, flow cytometry; assay type: cell-based; conditions: 10 μg/ml pre-treatment
Experimental: as §1, §2

[5] = test system: hepatocarcinoma (Hepa 1-6); assay: In vitro activation cell markers, flow cytometry; assay type: cell-based, murine; conditions: 10 μg/ml pre-treatment
Experimental: as §1, §2

[6] = test system: lung cancer cells (TC-1); assay: In vitro activation cell markers, flow cytometry; assay type: cell-based, murine; conditions: 10 μg/ml pre-treatment
Experimental: as §1, §2

[7] = test system: glioblastoma (RG-1); assay: In vitro activation cell markers, flow cytometry; assay type: cell-based; conditions: 10 μg/ml pre-treatment
Experimental: as §2

[8] = test system: ovary tumor cells (CHO); assay: In vitro activation cell markers, flow cytometry; assay type: cell-based, hamster; conditions: 10 μg/ml pre-treatment
Experimental: as §1, §2

[9] = test system: hepatocarcinomas; assay: Subcutaneous tumor transplant model (Example 9); assay type: in vivo, mice; conditions: subcutaneous transplants, C57BL/6, 50 μg/ml in-situ for 7 days
Experimental: as §1
(§3) 4.—Subcutaneous tumor transplant model. 8-12 week old females of the strain C57BL/6 are inoculated in the right flank with 1×10^5 tumor cells for 7 days in order to develop a measurable tumor (4-6 mm thickness). Subsequently, the tumors are inoculated in-situ with 50 μg/ml of the GNP-LLO91-99 gold nanoparticles for 7 days. The size of the tumors is measured with a gauge and is expressed in volume using the following formula: (length×(width)^2)/2.

[10] = test system: lung cancer cells; assay: Subcutaneous tumor transplant model (Example 9); assay type: in vivo, mice; conditions: subcutaneous transplants, C57BL/6, 50 μg/ml in-situ for 7 days
Experimental: as §1, §3

[11] = test system: melanomas; assay: Subcutaneous tumor transplant model (Example 9); assay type: in vivo, mice; conditions: subcutaneous transplants, C57BL/6, 50 μg/ml in-situ for 7 days
Experimental: as §1, §3

[12] = test system: ovary tumor cells; assay: Subcutaneous tumor transplant model (Example 9); assay type: in vivo, mice; conditions: subcutaneous transplants, C57BL/6, 50 μg/ml in-situ for 7 days

## GNP-LLO91-99: gluconanoparticles synthesized with the peptide from listeriolysin O of Listeria monocytogenes, LLO91-99 (GYKDGNEYI; also: gold glyconanoparticle conjugate; UniProt P13128 91-99, looked up, fragment)
[1]; combination therapy with anti-CTLA-4 (100 μg/mouse every 2 days), at 14 days
  tumor regression: up to 90%
[1]; combination therapy with anti-CTLA-4 (100 μg/mouse every 2 days), at 30 days
  tumor regression: up to 90%
[1]; combination with anti-PD-1 (100 μg/mouse every 2 days), at 14 days
  tumor regression: 100%
[1]; combination with anti-PD-1 (100 μg/mouse every 2 days), at 30 days
  tumor regression: 100%
[1]; monotherapy, 50 μg/ml in the tumors, 7 days
  tumor regression: 80%
[1]; monotherapy, 50 μg/ml in the tumors, at 14 days
  tumor regression: 90%
[1]; monotherapy, 50 μg/ml in the tumors, at 30 days
  tumor regression: 90%
[2]
  effect of inducing apoptosis: not as significant
  induction of tumor apoptosis and necrosis: induce both necrosis and apoptosis with the same percentages; also recorded: induce both tumor apoptosis and necrosis
[3]
  expression of immune cell activation markers: boosted the expression of various activation markers such as MHC-I, MHC-II, CD80 and PD-1
[4]
  expression of immune cell activation markers: boosted the expression of various activation markers such as MHC-I, MHC-II, CD80 and PD-1
[5]; Hepa 1-6
  expression of immune cell activation markers: boosted the expression of various activation markers such as MHC-I, MHC-II, CD80 and PD-1
[5]; hepatocarcinomas
  expression of PD-1: high expression of PD-1
[6]
  expression of immune cell activation markers: only boosted the expression of MHC-I
[7]
  expression of MHC-I: inhibition
  expression of MHC-II: no variation
  expression of NCAM-1: no variation
  expression of immune cell activation markers: no induction of expression of activation markers
[8]
  expression of immune cell activation markers: did not undergo a variation in any of the markers analyzed
[9]
  in vivo inhibitory effect of the tumor: inhibitory effect of the tumor is also observed in vivo
[10]
  in vivo inhibitory effect of the tumor: inhibitory effect of the tumor is also observed in vivo
[11]
  in vivo inhibitory effect of the tumor: inhibitory effect of the tumor is also observed in vivo
[12]
  in vivo inhibitory effect of the tumor: does not cause any effect
